What was measured:
[1] = In vivo pharmacokinetics, mouse clearance
[2] = In vivo pharmacokinetics, rat clearance; conditions: plasma, intravenous, male nonfasted Wistar Han rats, doses 1 mg/kg i.v. and 5 mg/kg p.o.
Procedure: In vivo pharmacokinetic methods, rat: Male nonfasted Wistar Han rats (n=3) received test article at doses of 1 mg/kg i.v. (1 mL/kg) and 5 mg/kg p.o. (5 ml/kg) formulated in a DMSO/solutol/10% hydroxyl-propyl β cyclodextrin (10:10:80) dosing vehicle. For all animals,food and water was provided ad libitum. Blood samples were withdrawn from a surgically-implanted venous cannula at timed intervals for 24 h after dose administration, treated with EDTA, and centrifuged to harvest plasma for LC/MS/MS analysis. Plasma concentration-time data for individual rats were analyzed by noncompartmental analysis using the Phoenix™ WinNonlin® (version 6.2.1, Pharsight Corp., St. Louis, Mo.) software to generate pharmacokinetic parameter estimates.

[3] = target: T1, Recombinant human IDO1 (Homo sapiens, UniProt P14902); experiment: IDOi enzyme assay (absorbance readout of NFK formation at 320 nm); assay type: biochemical; conditions: recombinant human IDO1, 2 mM D-tryptophan, 30 min preincubation; read-out: pXC50 enzyme (converted)
T1 construct: made in house; host or cells: E. coli
T1 sequence (P14902 whole entry): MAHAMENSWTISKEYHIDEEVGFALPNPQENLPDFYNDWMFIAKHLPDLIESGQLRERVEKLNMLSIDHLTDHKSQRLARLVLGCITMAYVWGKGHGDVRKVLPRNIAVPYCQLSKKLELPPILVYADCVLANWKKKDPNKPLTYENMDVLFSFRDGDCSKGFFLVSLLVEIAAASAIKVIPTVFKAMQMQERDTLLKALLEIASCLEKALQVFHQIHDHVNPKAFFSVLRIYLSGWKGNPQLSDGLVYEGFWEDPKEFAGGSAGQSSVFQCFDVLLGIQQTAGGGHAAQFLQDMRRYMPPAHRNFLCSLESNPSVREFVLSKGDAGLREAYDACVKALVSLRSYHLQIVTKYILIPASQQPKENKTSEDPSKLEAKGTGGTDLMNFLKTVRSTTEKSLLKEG

[4] = target: T2, indoleamine 2, 3-dioxygenase (IDO1) in IFN-γ/LPS stimulated human peripheral blood mononuclear cells (PBMC) (Homo sapiens, UniProt P14902); experiment: PBMC IDOi assay (kynurenine by mass spectrometry); assay type: cell-based; conditions: human PBMC stimulated with IFN-γ and LPS, 2 days, kynurenine by MS; read-out: pXC50 PBMC (converted)
T2 construct: host or cells: human PBMC stimulated with IFN-γ and LPS
T2 sequence (P14902 whole entry): as above

[5] = target: T3, indoleamine 2, 3-dioxygenase (IDO1) in IFN-γ stimulated HeLa cells (Homo sapiens, UniProt P14902); experiment: HeLa IDOi assay (kynurenine by mass spectrometry); assay type: cell-based; conditions: HeLa cells stimulated with IFN-γ, 2 days, kynurenine by MS; read-out: pXC50 HeLa (converted)
T3 construct: host or cells: HeLa cells stimulated with IFN-γ
T3 sequence (P14902 whole entry): as above

[6] = target: T4, indoleamine 2, 3-dioxygenase (IDO1) in IFN-γ/LPS stimulated human monocyte-derived dendritic cells (MDDC) (Homo sapiens, UniProt P14902); experiment: IDOi MDDC assay (kynurenine by mass spectrometry); assay type: cell-based; conditions: human MDDC stimulated with IFN-γ and LPS, 2 days, kynurenine by MS; read-out: pXC50 MDDC (converted)
T4 construct: host or cells: human monocyte-derived dendritic cells stimulated with IFN-γ and LPS
T4 sequence (P14902 whole entry): as above

SMILES	clearance [1] [L/h/kg]	clearance [2] [L/h/kg]	IC50 [3] [µM]	IC50 [4] [µM]	IC50 [5] [µM]	IC50 [6] [µM]
NS(=O)(=O)NCCNc1nonc1C(=NO)Nc1ccc(F)c(Br)c1 [Compound 11, reference compound]	2.23	3.04	–	–	–	–
O=C(NCCNc1nonc1C(=NO)Nc1ccc(F)c(Br)c1)c1ccc2c(c1)COB2O [Compound 8]	–	4.49	0.0794	0.0501	0.158	0.0794
O=C(NCCNc1nonc1C(=NO)Nc1ccc(F)c(Br)c1)c1ccc2c(c1)B(O)OC=C2 [Compound 3, N-(2-((4-(N-(3-Bromo-4-fluorophenyl)-N′-hydroxycarbamimidoyl)-1,2,5-oxadiazol-3-yl)amino)ethyl)-1-hydroxy-1H-benzo[c][1,2]oxaborinine-7-carboxamide]	–	0.048	0.0794	0.316	1.26	2
O=C(NCCNc1nonc1C(=NO)Nc1ccc(F)c(Br)c1)c1cccc2c1B(O)OCC2 [Compound 1, N-(2-((4-(N-(3-bromo-4-fluorophenyl)-N′-hydroxycarbamimidoyl)-1,2,5-oxadiazol-3-yl)amino)ethyl)-1-hydroxy-3,4-dihydro-1H-benzo[c][1,2]oxaborinine-8-carboxamide]	0.036	0.048	0.1	0.126	0.1	0.158
ON=C(Nc1ccc(F)c(Br)c1)c1nonc1Nc1ccc(B(O)O)cc1 [Compound 10]	–	13.2	0.0251	0.2	0.158	0.631
O=C(NCCNc1nonc1C(=NO)Nc1ccc(F)c(Br)c1)Nc1ccc(B(O)O)cc1 [Compound 9]	–	14.3	0.0316	0.0316	0.1	0.0631
O=C(NCCNc1nonc1C(=NO)Nc1ccc(F)c(Br)c1)c1cccc2c1B(O)OC=C2 [Compound 2, N-(2-((4-(N-(3-Bromo-4-fluorophenyl)-N′-hydroxycarbamimidoyl)-1,2,5-oxadiazol-3-yl)amino)ethyl)-1-hydroxy-1H-benzo[c][1,2]oxaborinine-8-carboxamide]	–	–	0.2	0.501	0.631	–
O=C(NCCNc1nonc1C(=NO)Nc1ccc(F)c(Br)c1)c1ccc2c(c1)B(O)OCC2 [Compound 4, N-(2-((4-(N-(3-Bromo-4-fluorophenyl)-N′-hydroxycarbamimidoyl)-1,2,5-oxadiazol-3-yl)amino)ethyl)-1-hydroxy-3,4-dihydro-1H-benzo[c][1,2]oxaborinine-7-carboxamide]	–	0.12	0.0501	0.1	0.158	1.26
O=C(NCCNc1nonc1C(=NO)Nc1ccc(F)c(Br)c1)c1cccc2c1B(O)OC2 [Compound 6, N-(2-((4-(N-(3-Bromo-4-fluorophenyl)-N′-hydroxycarbamimidoyl)-1,2,5-oxadiazol-3-yl)amino)ethyl)-1-hydroxy-1,3-dihydrobenzo[c][1,2]oxaborole-7-carboxamide]	0.426	0.288	0.0794	0.1	0.158	0.1
O=C(CN1CCOB2OCc3cccc1c32)NCCNc1nonc1C(=NO)Nc1ccc(F)c(Br)c1 [Compound 7]	–	10.8	0.1	0.398	0.631	–
CN(Cc1cccc2c1COB2O)C(=O)CNc1nonc1C(=NO)Nc1ccc(F)c(Br)c1 [Compound 5, 2-((4-(N-(3-Bromo-4-fluorophenyl)-N′-hydroxycarbamimidoyl)-1,2,5-oxadiazol-3-yl)amino)-N-((1-hydroxy-1,3-dihydrobenzo[c][1,2]oxaborol-4-yl)methyl)-N-methylacetamide 2,2,2-trifluoroacetate]	0.186	0.168	0.1	0.158	0.2	0.126
